Read-outs that look alike come from different tables or passages of the source.
Experiments:
Assay in all cases: 3D clonogenic assay (PDX)
Format in all cases: cell-based, human
[1] = system: LXFA 629; details: LXFA 629, Lung Adeno; for IC50: Homo sapiens
How it was run: (§1)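 Colony counts from automated image analysis of INT-stained soft-agar cultures served as the read-out. Cells were dissociated from subcutaneous PDX tumors and layered in agar. Compound was applied 24 h later at 10 concentrations (top 50 µM) and left on the cells for 8–13 days.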

[2] = system: BXF 1352; details: BXF 1352, Bladder; for IC50: Homo sapiens
How it was run: as §1

[3] = system: HNXF 908; details: HNXF 908, Head and Neck; for IC50: Homo sapiens
How it was run: as §1

[4] = system: MEXF 672; details: MEXF 672, Melanoma; for IC50: Homo sapiens
How it was run: as §1

[5] = system: PAXF 2116; details: PAXF 2116, Pancreas; for IC50: Homo sapiens
How it was run: as §1

[6] = system: LXFA 923; details: LXFA 923, Lung Adeno; for IC50: Homo sapiens
How it was run: as §1

[7] = system: LXFL 529; details: LXFL 529, Lung Large Cell; for IC50: Homo sapiens
How it was run: as §1

[8] = system: OVXF 1023; details: OVXF 1023, Ovarian; for IC50: Homo sapiens, OVXF1023
How it was run: as §1

[9] = system: BXF 1036; details: BXF 1036, Bladder; for IC50: Homo sapiens
How it was run: as §1

[10] = system: MEXF 622; details: MEXF 622, Melanoma; for IC50: Homo sapiens
How it was run: as §1

[11] = system: RXF 1220; details: RXF 1220, Renal; for IC50: Homo sapiens
How it was run: as §1

[12] = system: LXFA 623; details: LXFA 623, Lung Adeno; for IC50: Homo sapiens
How it was run: as §1

IC50 ([1]; read-out: abs. IC50): 9.09 µM
IC50 ([1]; read-out: rel. IC50): 8.85 µM
IC50 ([2]; read-out: abs. IC50): 18.5 µM
IC50 ([2]; read-out: rel. IC50): 19 µM
IC50 ([3]; read-out: abs. IC50): 5.19 µM
IC50 ([3]; read-out: rel. IC50): 5.12 µM
IC50 ([4]; read-out: abs. IC50): 8.96 µM
IC50 ([4]; read-out: rel. IC50): 8.56 µM
IC50 ([5]; read-out: abs. IC50): 9.16 µM
IC50 ([5]; read-out: rel. IC50): 8.85 µM
IC50 ([6]; read-out: abs. IC50): 8.55 µM
IC50 ([6]; read-out: rel. IC50): 8.44 µM
IC50 ([7]; read-out: abs. IC50): 10.4 µM
IC50 ([7]; read-out: rel. IC50): 10.1 µM
IC50 ([8]; read-out: abs. IC50): 7.49 µM
IC50 ([8]; read-out: rel. IC50): 6.84 µM
IC50 ([9]; read-out: abs. IC50): 5.3 µM
IC50 ([9]; read-out: rel. IC50): 5 µM
IC50 ([10]; read-out: abs. IC50): 9.21 µM
IC50 ([10]; read-out: rel. IC50): 9.14 µM
IC50 ([11]; read-out: abs. IC50): 43.3 µM
IC50 ([11]; read-out: rel. IC50): 43.4 µM
IC50 ([12]; read-out: abs. IC50): 4.63 µM
IC50 ([12]; read-out: rel. IC50): 4.62 µM
Compound: O[C@H](c1cc(-c2ccc(Cl)cc2)nc2ccccc12)[C@@H]1CCCCN1 [S1, (R)-(2-(4-chlorophenyl)quinolin-4-yl)((S)-piperidin-2-yl)methanol]
b (bottom plateau of concentration-effect curve) [1]: 26
t (top plateau of concentration-effect curve) [1]: 108
b (bottom plateau of concentration-effect curve) [2]: 0
t (top plateau of concentration-effect curve) [2]: 97
b (bottom plateau of concentration-effect curve) [3]: 17
t (top plateau of concentration-effect curve) [3]: 90
b (bottom plateau of concentration-effect curve) [4]: 39
t (top plateau of concentration-effect curve) [4]: 96
b (bottom plateau of concentration-effect curve) [5]: 32
t (top plateau of concentration-effect curve) [5]: 112
b (bottom plateau of concentration-effect curve) [6]: 21
t (top plateau of concentration-effect curve) [6]: 101
b (bottom plateau of concentration-effect curve) [7]: 11
t (top plateau of concentration-effect curve) [7]: 92
b (bottom plateau of concentration-effect curve) [8]: 11
t (top plateau of concentration-effect curve) [8]: 100
b (bottom plateau of concentration-effect curve) [9]: 30
t (top plateau of concentration-effect curve) [9]: 95
b (bottom plateau of concentration-effect curve) [10]: 21
t (top plateau of concentration-effect curve) [10]: 86
b (bottom plateau of concentration-effect curve) [11]: 0
t (top plateau of concentration-effect curve) [11]: 99
b (bottom plateau of concentration-effect curve) [12]: 10
t (top plateau of concentration-effect curve) [12]: 92

Source: patent EP3064205A1, “Therapeutic use of isomeric forms of 2-(4-chlorophenyl)quinolin-4-yl)(piperidin-2-yl)methanol” (Glionova AB, priority 2015, dated 2016)
